{"source": "patent US11046686B2", "about": "“Thiadiazole IRAK4 compounds” (Gilead Sciences, Inc., priority 2018, dated 2021)", "note": "pEC50: −log10 of the molar value.", "data": [{"test_system": "TNFα", "experiment": "IRAK4 Monocyte TNFα Cell Based Assay", "design": "species or system human", "conditions": "Homo sapiens, Monocyte, human monocytes; second part of Table 2, compounds 33-343; unit inferred; read-out: EC50 MONO TNF HTRF", "how_it_was_run": "(§1)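 Human monocytes (5,000/well) pretreated with compound 1 h at 37 °C (0.1% DMSO final), then stimulated with 50 pg/ml LPS for 4 h. Secreted TNFα measured by TR-FRET two-antibody detection after overnight incubation at room temperature; % control relative to unstimulated and LPS-stimulated wells.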", "values": [{"smiles": "C[C@H](C#N)Nc1cc(-c2ccc3cc(C#N)cnn23)ncc1-c1nnc(N2C[C@H]3CC[C@@H](C2)[C@@H]3NC(=O)C2CC2)s1", "note": "[Example 148, N-((1R,5S,8S)-3-(5-(4-(((R)-1-cyanoethyl)amino)-6-(3-cyanopyrrolo[1,2-b]pyridazin-7-yl)pyridin-3-yl)-1,3,4-thiadiazol-2-yl)-3-azabicyclo[3.2.1]octan-8-yl)cyclopropanecarboxamide]", "pEC50": 8.85}]}, {"test_system": "TNFα", "experiment": "IRAK4 Monocyte TNFα Cell Based Assay", "design": "species or system human", "conditions": "human monocytes; second part of Table 2, compounds 33-343; unit inferred; read-out: EC50 MONO TNF HTRF", "how_it_was_run": "as §1", "values": [{"smiles": "N#Cc1cnn2c(-c3cc(NC4COC4)c(-c4nnc([C@H]5CC[C@H](NC(=O)C6CC6)CC5)s4)cn3)ccc2c1", "note": "[Example 135, N-((1r,4r)-4-(5-(6-(3-cyanopyrrolo[1,2-b]pyridazin-7-yl)-4-(oxetan-3-ylamino)pyridin-3-yl)-1,3,4-thiadiazol-2-yl)cyclohexyl)cyclopropanecarboxamide]", "pEC50": 7.98}, {"smiles": "CC(C)Nc1cc(-c2ccc3cc(C#N)cnn23)ncc1-c1nnc(C2CCN(C3COC3)CC2)s1", "note": "[Example 138]", "pEC50": 7.82}, {"smiles": "CC(C)Nc1cc(-c2ccc3cc(C#N)cnn23)ncc1-c1nnc([C@H]2CC[C@H](NC(=O)N3CCOCC3)CC2)s1", "note": "[Example 139, N-((1r,4r)-4-(5-(6-(3-cyanopyrrolo[1,2-]Apyridazin-7-yl)-4-(isopropylamino)pyridin-3-yl)-1,3,4-thiadiazol-2-yl)cyclohexyl)morpholine-4-carboxamide]", "pEC50": 8.23}, {"smiles": "CNC(=O)N[C@H]1CC[C@H](c2nnc(-c3cnc(-c4ccc5cc(C#N)cnn45)cc3NC(C)C)s2)CC1", "note": "[Example 140, 1-((1r,4r)-4-(5-(6-(3-cyanopyrrolo[1,2-b]pyridazin-7-yl)-4-(isopropylamino)pyridin-3-yl)-1,3,4-thiadiazol-2-yl)cyclohexyl)-3-methylurea]", "pEC50": 8.19}, {"smiles": "COC(=O)NC[C@H]1C[C@H](Nc2cc(-c3ccc4cc(C#N)cnn34)ncc2-c2nnc([C@H]3CC[C@H](NC(=O)N4CCOCC4)CC3)s2)C1", "note": "[Example 143]", "pEC50": 8.51}, {"smiles": "CC(=O)N[C@@H]1[C@@H]2CC[C@H]1CN(c1nnc(-c3cnc(-c4ccc5cc(C#N)cnn45)cc3NC3(C)COC3)s1)C2", "note": "[Example 144, N-((1R,5S,8s)-3-(5-(6-(3-cyanopyrrolo[1,2-b]pyridazin-7-yl)-4-((3-methyloxetan-3-yl)amino)pyridin-3-yl)-1,3,4-thiadiazo1-2-yl)-3-azabicyclo[3.2.1]octan-8-yl)acetamide]", "pEC50": 8.64}, {"smiles": "CC(C)Nc1cc(-c2ccc3cc(C#N)cnn23)ncc1-c1nnc(N2C[C@H]3CC[C@@H](C2)[C@H]3O)s1", "note": "[Example 146, 7-(5-(5-((1R,5S,8r)-8-hydroxy-3-azabicyclo[3.2.1]octan-3-yl)-1,3,4-thiadiazol-2-yl)-4-(isopropylamino)pyridin-2-yl)pyrrolo[1,2-b]pyridazine-3-carbonitrile]", "pEC50": 8.28}, {"smiles": "CC1(Nc2cc(-c3ccc4cc(C#N)cnn34)ncc2-c2nnc(N3C[C@H]4CC[C@@H](C3)[C@H]4O)s2)COC1", "note": "[Example 149, 7-(5-(5-((1R,5S,8r)-8-hydroxy-3-azabicyclo[3.2.1]octan-3-yl)-1,3,4-thiadiazol-2-yl)-4-((3-methyloxetan-3-yl)amino)pyridin-2-yl)pyrrolo[1,2-b]pyridazine-3-carbonitrile]", "pEC50": 8.31}, {"smiles": "CC(C)Nc1cc(-c2ccc3cc(C#N)cnn23)ncc1-c1nnc(N2C[C@H]3CC[C@@H](C2)[C@@H]3NC(=O)C2CC2)s1", "note": "[Example 150, N-((1R,5S,8s)-3-(5-(6-(3-cyanopyrrolo[1,2-b]pyridazin-7-yl)-4-(isopropylamino)pyridin-3-yl)-1,3,4-thiadiazol-2-yl)-3-azabicyclo[3.2.1]octan-8-yl)cyclopropanecarboxamide]", "pEC50": 8.28}, {"smiles": "CC(C)Nc1cc(-c2ccc3cc(C#N)cnn23)ncc1-c1nnc(N2C[C@H]3CC[C@@H](C2)[C@@]3(C)O)s1", "note": "[Example 153, 7-(5-(5-((1R,55,8r)-8-hydroxy-8-methyl-3-azabicyclo[3.2.1]octan-3-yl)-1,3,4-thiadiazol-2-yl)-4-(isopropylamino)pyridin-2-yl)pyrrolo[1,2-b]pyridazine-3-carbonitrile]", "pEC50": 8.14}, {"smiles": "CC(C)Nc1cc(-c2ccc3cc(C#N)cnn23)ncc1-c1nnc(N2C[C@H]3CC[C@@H](C2)[C@@H]3O)s1", "note": "[Example 154, 7-(5-(5-((1R,5S,8s)-8-hydroxy-3-azabicyclo[3.2.1]octan-3-yl)-1,3,4-thiadiazol-2-yl)-4-(isopropylamino)pyridin-2-yl)pyrrolo[1,2-b]pyridazine-3-carbonitrile]", "pEC50": 7.88}, {"smiles": "CC(=O)N[C@]1(C)[C@@H]2CC[C@H]1CN(c1nnc(-c3cnc(-c4ccc5cc(C#N)cnn45)cc3NC(C)C)s1)C2", "note": "[Example 155]", "pEC50": 8.13}, {"smiles": "N#Cc1cnn2c(-c3cc(NC4CCOCC4)c(-c4nnc([C@H]5CC[C@H](NC(=O)C6CC6)CC5)s4)cn3)ccc2c1", "note": "[Example 156, N-((1r,4r)-4-(5-(6-(3-cyanopyrrolo[1,2-b]pyridazin-7-yl)-4-((tetrahydro-2H-pyran-4-yl)amino)pyridin-3-yl)-1,3,4-thiadiazol-2-yl)cyclohexyl)cyclopropanecarboxamide]", "pEC50": 7.96}, {"smiles": "CC(=O)N[C@]1(C)[C@@H]2CC[C@H]1CN(c1nnc(-c3cnc(-c4ccc5cc(C#N)cnn45)cc3N[C@H](C)C#N)s1)C2", "note": "[Example 157, N-((1R,5S,8S)-3-(5-(4-((R)-1-cyanoethypamino)-6-(3-cyanopyrrolo[1,2-b]pyridazin-7-yl)pyridin-3-yl)-1,3,4-thiadiazol-2-yl)-8-methyl-3-azabicyclo[3.2.1]octan-8-yl)acetamide]", "pEC50": 8.74}, {"smiles": "CC1(Nc2cc(-c3ccc4cc(C#N)cnn34)ncc2-c2nnc([C@H]3CC[C@H](NC(=O)C4CC4)CC3)s2)COC1", "note": "[Example 158, N-((1r,4r)-4-(5-(6-(3-cyanopyrrolo[1,2-b]pyridazin-7-yl)-4-((3-methyloxetan-3-yl)amino)pyridin-3-yl)-1,3,4-thiadiazol-2-yl)cyclohexyl)cyclopropanecarboxamide]", "pEC50": 7.70}, {"smiles": "CC(C)Nc1cc(-c2ccc3cc(C#N)cnn23)ncc1-c1nnc(N2CC3CCC(C2)C3(O)C(F)(F)F)s1", "note": "(centres unmarked) [Example 159, 7-(5-(5-(8-hydroxy-8-(trifluoromethyl)-3-azabicyclo[3.2.1]octan-3-yl)-1,3,4-thiadiazol-2-yl)-4-(isopropylamino)pyridin-2-yl)pylrolo[1,2-b]pyridazine-3-carbonitrile]", "pEC50": 7.59}, {"smiles": "C[C@H](C#N)Nc1cc(-c2ccc3cc(C#N)cnn23)ncc1-c1nnc([C@H]2CC[C@H](NC(=O)C3CC3)CC2)s1", "note": "[Example 160, N-((1R,4r)-4-(5-(4-(((R)-1-cyanoethyl)amino)-6-(3-cyanopyrrolo[1,2-b]pyridazin-7-yl)pyridin-3-yl)-1,3,4-thiadiazol-2-yl)cyclohexyl)cyclopropanecarboxamide]", "pEC50": 8.55}, {"smiles": "CC(C)Nc1cc(-c2ccc3cc(C#N)cnn23)ncc1-c1nnc(N2CC3(CCNC3=O)C2)s1", "note": "[Example 164]", "pEC50": 7.76}, {"smiles": "CC(=O)N[C@H]1[C@@H]2CCC[C@H]1CN(c1nnc(-c3cnc(-c4ccc5cc(C#N)cnn45)cc3NC(C)C)s1)C2", "note": "[Example 165, N-((1R,5S,9r)-3-(5-(6-(3-cyanopyrrolo[1,2-b]pyridazin-7-yl)-4-(isopropylamino)pyridin-3-yl)-1,3,4-thiadiazol-2-yl)-3-azabicyclo[3.3.1]nonan-9-yl)acetamide]", "pEC50": 7.41}]}]}
